Experimental findings from publication PMC5130005, “Indolin-2-one compounds targeting thioredoxin reductase as potential anticancer drug leads” (Oncotarget, 2016) are described below.

Each structure is given as a SMILES string.

One test has as its target T1, bovine GPx (Bos taurus, UniProt P00435).
T1 construct: purchased Sigma
T1 sequence (P00435 1-205): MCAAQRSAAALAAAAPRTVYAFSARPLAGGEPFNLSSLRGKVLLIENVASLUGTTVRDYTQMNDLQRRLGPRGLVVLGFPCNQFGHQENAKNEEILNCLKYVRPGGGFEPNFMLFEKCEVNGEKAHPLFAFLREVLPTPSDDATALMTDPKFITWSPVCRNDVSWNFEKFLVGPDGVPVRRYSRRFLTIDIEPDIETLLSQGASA
In words: in vitro bovine GPx activity assay. It is filed as biochemical. The note with it: 60 min incubation, 1-100 μM, 100 nM bovine GPx. The procedure: For determination of in vitro bovine GPx activity, compounds of concentrations 1-100 μM were incubated with 100 nM bovine GPx, 20 nM yeast GR, 1 mM GSH and 200 μM NADPH in a volume of 100 μl phosphate buffer (0.1 M sodium phosphate, 2 mM EDTA pH 7.5) for 1 h at room temperature. H2O2 solution in phosphate buffer was added to initiate the reaction (final concentration 1.5 mM). NADPH consumption was monitored at 340 nm using the VersaMax microplate reader. The cellular GPx activity was determined similarly except lysates of HCT 116 and MCF-7 cells (25 μg protein) were used instead of bovine GPx. The results were calculated based on decrease in absorbance in the initial 3 min and presented as % of GPx activity of drug-treated sample over that of DMSO-treated sample.

The target of a further test is T2, TrxR in HCT 116 cells (Homo sapiens, UniProt Q16881).
T2 construct: Lysates of HCT 116 cells treated with indicated concentrations of selected SCA analogs for 10 h; endogenous in cells; host or cells: HCT 116
T2 sequence (Q16881 1-499 isoform Q16881-5): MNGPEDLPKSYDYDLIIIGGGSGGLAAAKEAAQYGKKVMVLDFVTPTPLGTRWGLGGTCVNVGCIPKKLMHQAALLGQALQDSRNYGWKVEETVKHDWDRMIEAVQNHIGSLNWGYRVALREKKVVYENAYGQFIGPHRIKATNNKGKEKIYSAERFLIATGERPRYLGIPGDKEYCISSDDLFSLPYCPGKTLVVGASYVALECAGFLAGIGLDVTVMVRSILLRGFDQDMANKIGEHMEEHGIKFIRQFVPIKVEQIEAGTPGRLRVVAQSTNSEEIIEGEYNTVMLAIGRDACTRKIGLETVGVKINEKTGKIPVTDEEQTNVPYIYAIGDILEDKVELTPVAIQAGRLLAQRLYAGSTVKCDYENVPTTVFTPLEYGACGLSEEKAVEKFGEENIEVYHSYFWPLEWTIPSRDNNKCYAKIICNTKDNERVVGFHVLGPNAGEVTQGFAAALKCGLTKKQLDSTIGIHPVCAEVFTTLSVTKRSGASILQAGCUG
The test is described as follows: cellular TrxR activity in HCT 116 cell lysates (insulin reduction assay). It is filed as cell-based. The note with it: for cellular TrxR activity, HCT 116 cells: 10 h treatment, 20, 30, 40 and 50 μM. The procedure:
Cells were seeded onto 100 mm or 60 mm culture plates and upon reaching ~70% confluency, they were subjected to drug treatment for indicated durations. Pellets of compound-treated or DMSO control cells comprising both attached and floating cells were collected and lysed in lysis buffer (25 mM Tris-HCl pH 7.5, 100 mM NaCl, 2.5 mM EDTA, 2.5 mM EGTA, 20 mM NaF, 1 mM Na3VO4, 20 mM sodium β-glycerophosphate, 10 mM sodium pyrophosphate, 0.5% Triton X-100) with freshly added protease inhibitor cocktail (Roche Diagnostics). Prior to being used in Western blot analysis and/or cellular TrxR, GR, Trx and GPx activity determination, lysates were precleared by centrifugation and protein concentrations were determined using a modified Bradford assay (Bio-Rad Laboratories) as described in the manufacturer's manual. This procedure for collecting whole cell lysate was used for all experiments except for the Trx-redox state determination experiment. Equal amounts of protein (50 μg) in each lysate sample were separated by SDS-PAGE, followed by electroblotting onto nitrocellulose membranes. Electroblotted proteins on membranes were probed with a primary antibody and subsequently by a secondary antibody conjugated to HRP.
Freshly collected cell lysates were used for measurement of activity of cellular Trx and TrxR. To measure TrxR activity, in each well of a 96-well plate, 25 μg of cell lysate was incubated in a final volume of 50 μl containing 85 mM Hepes (pH 7.6), 0.3 mM insulin, 10 μM rhTrx1, 2.5 mM EDTA and 660 μM NADPH for 40 min at 37°C. Controls containing lysates and all reaction reagents except rhTrx1 for each lysate sample were also set up. 200 μl of 1 mM DTNB in 6 M guanidine-HCl, 200 mM Tris-HCl pH 8.0 solution was added to quench the reaction. The amount of free thiols generated from insulin reduction was determined by DTNB reduction at 412 nm using the VersaMax microplate reader. To measure Trx activity, procedures were carried out similar to those for determining cellular TrxR activity, except that the cell lysates were incubated for 20 min with 300 nM recombinant rat TrxR in place of rhTrx1. Controls containing lysates and all reaction reagents except recombinant rat TrxR for each lysate sample were also set up. For each sample, Trx or TrxR activity was calculated as the absorbance at 412 nm subtracted from that of the corresponding control and expressed as a percentage of the activity measured in DMSO-treated cells.

In the next test the test system is MCF-7 cells. In words: MTT cell viability assay, MCF-7 cells. The note with it: Homo sapiens, MCF7, 72 h, mean ± SD of 3 experiments; for GI50: read-out: GI50 (50% growth inhibition concentration), MCF-7 cells; for CC50: read-out: LC50 (50% lethal concentration), MCF-7 cells. It is filed as cell-based. On the procedure: HCT 116 and MCF-7 cells were seeded in 96-well plates at a density of 1 × 10^4 cells/well and allowed to grow for 20-24 h before addition of test compounds. DMSO stocks of indolin-2-one compounds were serially diluted in medium each time an assay was performed. Cell viability was determined at the time of compound addition (time 0) and after 72 h of compound treatment by reduction of 3-(4,5-dimethylthiazol-2-yl)-2,5-diphenyltetrazolium bromide (MTT) by dehydrogenases in viable cells. MTT was added into each well (final concentration 400 μg/ml) and the plates were incubated for 4 h at 37°C. The supernatants were aspirated and upon solubilization of the formed formazan crystals in DMSO:glycine buffer pH 10.5 (ratio 4:1), absorbance at 550 nm was measured. 50% growth inhibition concentrations (GI50) and 50% lethal concentrations (LC50) values were calculated.

On to `CC(=O)/C=C1/C(=O)N(Cc2ccccc2)c2ccccc21` [Compound 5], for which the “bovine GPx activity” value on bovine GPx is on record as “uninhibited”. Further, on TrxR in HCT 116 cells, the “cellular TrxR activity, HCT 116 cells” value is reported as “decrease in TrxR activity in a dose-dependent manner”. For the same molecule, the “cellular TrxR activity at 40 and 50 μM, HCT 116 cells” value on TrxR in HCT 116 cells (10 h treatment, 40 and 50 μM, p < 0.05 vs DMSO) is reported as “significant reduction”. In the test on MCF-7 cells, the GI50 came out at 4.5 ± 0.6 µM and the CC50 stood at 9.6 ± 0.2 µM.
Consider `CC(=O)C=C1C(=O)N(C)c2ccccc21` [Compound 1, 1-methyl-3(2-oxopropylidene)indolin-2-one], for which, at bovine GPx, the “bovine GPx activity” value is “uninhibited”. For the same molecule, the “cellular TrxR activity, HCT 116 cells” value on TrxR in HCT 116 cells is given as “did not cause apparent inhibition”. Moreover, in the test on MCF-7 cells, the GI50 amounted to 15.1 ± 4.1 µM and the CC50 came to 27.6 ± 0.4 µM.
For `CN1C(=O)/C(=C/C(=O)c2ccccc2)c2ccccc21` [Compound 6], the “bovine GPx activity” value at bovine GPx is given as “uninhibited”. Also, at TrxR in HCT 116 cells, the “cellular TrxR activity, HCT 116 cells” value is reported as “did not cause apparent inhibition”. For the same molecule, in the test on MCF-7 cells, the GI50 came out at 14 ± 3.7 µM and the CC50 came to 27.1 ± 0.5 µM.
For the molecule `CCCCN1C(=O)/C(=C/C(C)=O)c2ccccc21` [Compound 4], the “bovine GPx activity” value on bovine GPx is on record as “uninhibited”. Besides, the “cellular TrxR activity, HCT 116 cells” value on TrxR in HCT 116 cells is “decrease in TrxR activity in a dose-dependent manner”. Also, in the test with MCF-7 cells, the GI50 is 6.4 ± 1.5 µM and the CC50 was found to be 22.4 ± 3.6 µM.
